Test results from patent publication US20020156115A1, “Insecticidal and acaricidal composition, and methods of using the same” (AGRO-KANESHO CO., LTD., priority 1999, published 2002).

Tests used:
Format in all cases: in vivo
[1] = tested on: diamond backmoth (Plutella xylostera); assay: Insecticidal effect on larvae of diamond backmoth (cabbage leaf dip); conditions: 500 ppm; cabbage leaf immersed 1 minute; third-instar larvae; fourth day; 25° C.
Procedure: Insecticidal Effect on Larvae of Diamond Backmoth (Plutella xylostera) The present insecticide prepared according to the Preparation Example was diluted with water. A piece (diameter: 6 cm) of a cabbage leaf was immersed in the diluted insecticide for 1 minute. After air drying, the piece was placed in a plastic cup (inner diameter: 7 cm). 5 third-instar larvae of diamond backmoth (Plutella xylostera) were put in the cup (1 concentration, repetition: twice). The cup was kept in a constant temperature room at 25° C. On the fourth day, the survival rate and degree of writhing of the larvae were examined. The writhing larvae were each counted to be ½.

[2] = tested on: two-spotted red spiders (Tetranychus telarius); assay: Acaricidal effect on two-spotted red spiders, imago-killing rate, 500 ppm leaf immersion; conditions: female imagoes on green bean leaf, leaf immersion about 5 seconds, concentration 500 ppm, fifth day after treatment, 25° C.
Procedure: (§1) Acaricidal Effect on Larvae of Two-Spotted Red Spiders (Tetranychus telarius): A stem of green bean seedling having only one primary left was placed in a test tube (capacity: 50 ml) containing water. 15 female imagoes of two-spotted red spiders were put on each leaf. One day after, the leaf having the two-spotted red spiders was immersed (about 5 seconds) in the present insecticide diluted with water, which had been prepared according to the Preparation Example, (concentration: 500 ppm, repetition: twice). They were kept in a constant-temperature room at 25° C. On the fifth day after the treatment, the female imagoes on the leaf of the green bean seedling were observed. The imago-killing rate (%) was determined on the basis of the results of the observation to obtain the results shown in Table 6.

[3] = tested on: eggs of two-spotted red spiders (Tetranychus telarius); assay: Acaricidal effect on eggs of two-spotted red spiders, ovicidal rate, 500 ppm spray; conditions: eggs on green bean leaf disc; spray 3.5 ml; concentration 500 ppm; 8 days after treatment
Procedure: Acaricidal Effect on Eggs of Two-Spotted Red Spiders (Tetranychus telarius) 5 female imagoes of two-spotted red spiders were released on a green been leaf disc (diameter: 3 cm). Then, the imagoes were left to lay eggs on the leaf disc for 20 hours and then removed therefrom. The present acaricide which had been prepared according to Preparation Example 1 was diluted with water to a predetermined concentration. 3.5 ml of the preparation thus obtained was sprayed with a rotary spraying column (Mizuho Rika) over the disc (concentration: 500 ppm, repetition: twice). 8 days after the treatment, the number of unhatched eggs was counted to determine the ovicidal rate (%).

[4] = tested on: two-spotted red spiders (Tetranychus telarius); assay: Acaricidal effect of a low concentration (12.5 ppm) on two-spotted red spiders; conditions: leaf immersion, female imagoes, fifth day after treatment, 25° C.
Procedure: as §1, with “A” for “Acaricidal Effect on Larvae of Two-Spotted Red Spiders (Tetranychus telarius): A”
Acaricidal Effect of a Low Concentration of Acaricide on Larvae of Two-Spotted Red Spiders (Tetranychus telarius)
The same tests as those of Test Example 2 were repeated except that the concentration of the acaricide was changed to 12.5 ppm.

Structure (SMILES): COC=C(C(=O)OC)c1c(C#Cc2cc(C(F)(F)F)cc(C(F)(F)F)c2)c(C)nn1C [Table 1-5, Methyl α-[1,3-dimethyl-4-{3,5-bis(trifluoromethyl)phenylethynyl}-5-pyrazole]-β-methoxyacrylate]
- Killing rate [1]: 100%
- Acaricidal rate (%) [2]: 100%
- Ovicidal rate (%) [3]: 100%
- acaricidal effect [4]: 100%

Structure (SMILES): CO/C=C(/C(=O)OC)c1c(C#Cc2ccc(Oc3ccc(F)cc3Cl)cc2)c(C)nn1C [Table 1-12]
- Killing rate [1]: 100%
- Acaricidal rate (%) [2]: 100%
- Ovicidal rate (%) [3]: 100%
- acaricidal effect [4]: 100%

Structure (SMILES): CO/C=C(/C(=O)OC)c1c(C#Cc2ccc(OC(F)(F)F)cc2)c(C)nn1C [Table 1-29]
- Killing rate [1]: 85%
- Acaricidal rate (%) [2]: 100%
- Ovicidal rate (%) [3]: 100%
- acaricidal effect [4]: 100%

Structure (SMILES): CO/C=C(/C(=O)OC)c1c(C#Cc2ccc(Oc3ccc(C(F)(F)F)cc3)cc2)c(C)nn1C [Table 1-10]
- Killing rate [1]: 100%
- Acaricidal rate (%) [2]: 100%
- Ovicidal rate (%) [3]: 100%
- acaricidal effect [4]: 100%
